Assay results taken from US20200016136A1 (VIIV HEALTHCARE UK (NO. 5) LIMITED, priority 2017, published 2020).

test system: NL-RLuc virus (recombinant NL4-3 HIV with Renilla Luciferase gene); test: Inhibition of HIV replication (NL-RLuc virus in MT-2 cells, luciferase readout); type: cell-based, Human immunodeficiency virus (HIV); settings: MT2, 120 h
From the text: Inhibition of HIV Replication:
A recombinant NL-RLuc proviral clone was constructed in which a section of the nef gene form NL4-3 was replaced with the Renilla Luciferase gene. This virus is fully infectious and can undergo multiple cycles of replication in cell culture. In addition, the luciferous reporter provides a simple and easy method for quantitating the extent of virus growth and consequently, the antiviral activity of test compounds. The plasmid pNLRLuc contains the proviral NL-Rluc DNA cloned into pUC18 at the PvuII site. The NL-RLuc virus was prepared by transfection of 293T cells with the plasmid pNLRLuc. Transfections were performed using the LipofectAMINE PLUS kit form Invitrogen (Carlsbad, Calif.) according to the manufacturer and the virus generated was titered in MT-2 cells. For susceptibility analyses, the titrated virus was used to infect MT-2 cells in the presence of compound, and after 5 days of incubation, cells were processed and quantitated for virus growth by the amount of expressed luciferase. Assay media was RPMI 1640 supplemented with 10% heat inactivated fetal bovine serum (FBS), 100 units/ml penicillin G/100 units/ml streptomycin, 10 mM HEPES buffer pH 7.55 and 2 mM L-glutamine. The results form at least 2 experiments were used to calculate the EC50 values. Luciferase was quantitated using the Dual Luciferase kit form Promega (Madison, Wis.). Susceptibility of viruses to compounds was determined by incubation in the presence of serial dilutions of the compound. The 50% effective concentration (EC50) was calculated by using the exponential form of the median effect equation where (Fa)=1/[1+(ED50/drug conc.)^m](Johnson V A, Byington R T. Infectivity Assay. In Techniques in HIV Research. ed. Aldovini A, Walker B D. 71-76. New York: Stockton Press. 1990).

| SMILES | EC50 [nM] |
| --- | --- |
| Cc1cccc(Cl)c1CN1CCc2cc(-c3c(O)nc(C)c([C@H](OC(C)(C)C)C(=O)O)c3N3CCC(C)(C)CC3)ccc2C1 [Example 1, (S)-2-(tert-Butoxy)-2-(5-(2-(2-chloro-6-methylbenzyl)-1,2,3,4-tetrahydroisoquinolin-6-yl)-4-(4,4-dimethylpiperidin-1-yl)-2-methyl-6-oxo-1,6-dihydropyridin-3-yl)acetic Acid] | 10 |
| COCCNc1nc(C)c([C@H](OC(C)(C)C)C(=O)O)c(N2CCC(C)(C)CC2)c1-c1ccc2c(c1)CCN(Cc1c(C)cccc1Cl)C2 [Example 2, (S)-2-(tert-Butoxy)-2-(5-(2-(2-chloro-6-methylbenzyl)-1,2,3,4-tetrahydroisoquinolin-6-yl)-4-(4,4-dimethylpiperidin-1-yl)-6-((2-methoxyethyl)amino)-2-methylpyridin-3-yl)acetic Acid] | 4 |
| Cc1cccc(Cl)c1CN1CCc2cc(-c3c(NCCN(C)C)nc(C)c([C@H](OC(C)(C)C)C(=O)O)c3N3CCC(C)(C)CC3)ccc2C1 [Example 3, (S)-2-(tert-Butoxy)-2-(5-(2-(2-chloro-6-methylbenzyl)-1,2,3,4-tetrahydroisoquinolin-6-yl)-6-((2-(dimethylamino)ethyl)amino)-4-(4,4-dimethylpiperidin-1-yl)-2-methylpyridin-3-yl)acetic Acid] | 5 |
| Cc1cccc(Cl)c1CN1CCc2cc(-c3c(NCCN4CCCCC4)nc(C)c([C@H](OC(C)(C)C)C(=O)O)c3N3CCC(C)(C)CC3)ccc2C1 [Example 4, (S)-2-(tert-Butoxy)-2-(5-(2-(2-chloro-6-methylbenzyl)-1,2,3,4-tetrahydroisoquinolin-6-yl)-4-(4,4-dimethylpiperidin-1-yl)-2-methyl-6-((2-(piperidin-1-yl)ethyl)amino)pyridin-3-yl)acetic Acid] | 4 |
| Cc1cccc(Cl)c1CN1CCc2cc(-c3c(NCCN4CCOCC4)nc(C)c([C@H](OC(C)(C)C)C(=O)O)c3N3CCC(C)(C)CC3)ccc2C1 [Example 5, (S)-2-(tert-Butoxy)-2-(5-(2-(2-chloro-6-methylbenzyl)-1,2,3,4-tetrahydroisoquinolin-6-yl)-4-(4,4-dimethylpiperidin-1-yl)-2-methyl-6-((2-morpholinoethyl)amino)pyridin-3-yl)acetic Acid] | 2 |
| Cc1cccc(Cl)c1CN1CCc2cc(-c3c(NCc4ccn[nH]4)nc(C)c([C@H](OC(C)(C)C)C(=O)O)c3N3CCC(C)(C)CC3)ccc2C1 [Example 6, (S)-2-(6-(((1H-Pyrazol-5-yl)methyl)amino)-5-(2-(2-chloro-6-methylbenzyl)-1,2,3,4-tetrahydroisoquinolin-6-yl)-4-(4,4-dimethylpiperidin-1-yl)-2-methylpyridin-3-yl)-2-(tert-butoxy)acetic Acid] | 18 |
| Cc1cccc(Cl)c1CN1CCc2cc(-c3c(NCCn4cccn4)nc(C)c([C@H](OC(C)(C)C)C(=O)O)c3N3CCC(C)(C)CC3)ccc2C1 [Example 7, (S)-2-(6-((2-(1H-Pyrazol-1-yl)ethyl)amino)-5-(2-(2-chloro-6-methylbenzyl)-1,2,3,4-tetrahydroisoquinolin-6-yl)-4-(4,4-dimethylpiperidin-1-yl)-2-methylpyridin-3-yl)-2-(tert-butoxy)acetic Acid] | 13 |
| Cc1cccc(Cl)c1CN1CCc2cc(-c3c(NC4CCN(C)CC4)nc(C)c([C@H](OC(C)(C)C)C(=O)O)c3N3CCC(C)(C)CC3)ccc2C1 [Example 8, (S)-2-(tert-Butoxy)-2-(5-(2-(2-chloro-6-methylbenzyl)-1,2,3,4-tetrahydroisoquinolin-6-yl)-4-(4,4-dimethylpiperidin-1-yl)-2-methyl-6-((1-methylpiperidin-4-yl)amino)pyridin-3-yl)acetic Acid] | 2 |
